Data: publication PMC9599816, “Cholesterol Chip for the Study of Cholesterol–Protein Interactions Using SPR” (Biosensors, 2022)
pKd: −log10 of the molar value.

Tests used:
[1] = target: T1, hedgehog protein, HhC (C-terminal cholesterol-binding domain) (Drosophila melanogaster, UniProt Q02936, H329A); test: SPR, biotinylated cholesterol immobilized on streptavidin chip, […] Langmuir fit
T1 construct: gene hh; HhC autoprocessing mutant, C-terminal fusion to SUMO-HIS8

PTP1B = target: T2, PTP1B (Homo sapiens, UniProt P18031); test: biochemical
T2 construct: gene PTPN1
T2 sequence (P18031 1-321): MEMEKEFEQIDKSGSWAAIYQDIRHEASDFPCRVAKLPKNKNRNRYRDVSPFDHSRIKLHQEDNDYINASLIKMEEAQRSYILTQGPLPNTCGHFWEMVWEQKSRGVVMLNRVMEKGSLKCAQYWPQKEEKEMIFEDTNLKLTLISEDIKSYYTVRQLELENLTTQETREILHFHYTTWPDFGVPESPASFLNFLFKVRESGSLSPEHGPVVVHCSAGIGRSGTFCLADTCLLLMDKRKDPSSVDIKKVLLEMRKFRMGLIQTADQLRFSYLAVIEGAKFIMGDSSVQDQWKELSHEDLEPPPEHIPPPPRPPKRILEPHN

T1 sequence (Q02936 258-471 H329A): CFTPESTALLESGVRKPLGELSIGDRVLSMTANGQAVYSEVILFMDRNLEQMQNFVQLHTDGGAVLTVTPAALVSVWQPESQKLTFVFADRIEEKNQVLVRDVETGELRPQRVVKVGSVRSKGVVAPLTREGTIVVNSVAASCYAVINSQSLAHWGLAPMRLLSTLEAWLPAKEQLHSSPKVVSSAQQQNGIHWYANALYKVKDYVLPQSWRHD

SMILES: CC(CCC[C@@H](C)[C@H]1CC[C@H]2[C@@H]3CC=C4C[C@@H](O)CC[C@]4(C)[C@H]3CC[C@]12C)c1cn(CCOCCOCCOCCNC(=O)CCCCC2SCC3NC(=O)NC32)nn1 (some centres unmarked) [biotinylated cholesterol]
- pKd [1]: ~7.85
- pKd (PTP1B): ~7.07
